{"source": "patent US7915198B2", "about": "“Aqueous solution of non-colloidal silicic acid and boric acid” (Sabalo, N.V., priority 2002, dated 2011)", "key": {"[1]": {"tested_on": "potato plants (strain Bintje)", "procedure": "(§1) Solutions of boric acid in water were prepared containing different concentrations of boric acid: 1%, 0.1%, 0.03%, 0.01%, 0.005%, 0.0003% and 0.0001% (W/V). Sodium silicate (10% Si) was diluted tenfold in water and further 1000 times diluted in the solutions or in water with pH 4.5 after dilution, resulting in a final silicon concentration of 0.0010 wt. % (or 10 μg/ml Si)\n(§2) All solutions were filtered on a 0.1μ membrane filter. […] The solutions were used instantaneously. A potato garden was used to test the compounds against infection with Phytophthora infestan: 20 m^2 culture were used for testing and each m^2 contained 6 potato plants (strain Bintje) of two months old. Two times a week plant leaves were sprayed with the different solutions (about 10 liters/are). Four square meters were used as placebo."}, "[2]": {"tested_on": "Phytophthora infestan", "format": "in vivo, potato plants (strain Bintje)", "procedure": "as §1, §2"}}}
{"smiles": "OB(O)O", "note": "[boric acid]", "values": [{"measurement": "toxic reactions (necrotic effects on leaves such as black spots, holes)", "setting": "[1]; 1%, 0.1% and 0.03% boric acid, after 1 week treatment", "value": "toxic reactions"}, {"measurement": "strength of plant leaves", "setting": "[1]; From 0.003% boric acid on", "value": "plant leaves were stronger"}, {"measurement": "antifungal effect", "setting": "[2]; 1%, 0.1% and 0.03% boric acid", "value": "no antifungal effect"}, {"measurement": "fungal infection", "setting": "[2]; From 0.003% boric acid on", "value": "fungal infection decreased"}]}
